Measurements published in US4642340A, “Stable compounds of glucosamine sulphate” (Rotta Research Laboratorium S.p.A., priority 1981, dated 1987).
Where two headings read alike, the source gives them in different places.

Columns and labels:
mice-embryo fibroblast [1] = assay: Stimulation of the production of soluble GAG in mice-embryo fibroblast cultures, uptake of ^35 S; format: cell-based, mice (strain C57 BL/6 stCrl); settings: Mus musculus, Fibroblast, 24 h, read-out: Δ % over non-treated controls, soluble GAG
Method: (§2) For this purpose, primary cultures of mice-embryo fibroblasts (strain C57 BL/6 stCrl) were prepared by mechanical and enzymatic dissociation (in Trypsin Versene mixture-Microbiological Associates) of the embryos taken from the mother on the 18th day of pregnancy. The culture medium is the Eagle medium modified by Dulbecco and supplemented with 15% of calf foetus serum. The incubation atmosphere consists of 5% of carbon dioxide in air at 37° C. 24 hours after innoculation, the medium is replaced by a new medium containing the drug under examination and the radioactive precursor (Na2^35 SO4) for the measurement of the synthesis both of soluble and tissue-bound GAG; the culture is left to incubate for a further 24 hours and then the culture medium (containing the soluble GAG) and fibroblasts (containing the tissue-bound GAG) are separated.
(§3) The soluble GAG are isolated from the culture medium by precipitation with a solution of 5% trichloroacetic acid in ice-water while the fibroblast residues, containing the tissue-bound GAG, after repeated washings with physiological solutions, are dissolved in [sequence] or VERSENE.
(§4) The quantity of ^35 S incorporated both in the soluble GAG and in the tissue-bound GAG are evaluated by the usual scintillation methods and expressed in cpm (counts per minute).
(§5) The tests were carried out five times for each sample in order to allow the results to be evaluated statistically.

physchem = settings: solid storage, Titre of glucosamine
[2] = system: granuloma from cotton pellets; assay: Anti-inflammatory activity, granuloma induced by cotton pellets; format: in vivo, female albino rats of the Sprague Dawley strain; settings: 4 days; for Average dry weight of the granuloma (average ± s.e.): in mg (unit assumed)
Method: The test consists of evaluating the capacity of the substances under examination to inhibit the formation of granuloma following the subcutaneous implantation of extraneous bodies (in this case, cotton pellets). […] One group of animals was used as a control. […] After the subcutaneous implant of 2 cotton pellets each having a weight of 20 mg into the dorsal region, the animals were administered daily, for 4 consecutive days, with the substances under examination in the doses given above.

mice-embryo fibroblast [3] = assay: Stimulation of the production of tissue-bound GAG in mice-embryo fibroblast cultures, uptake of ^35 S; format: cell-based, mice (strain C57 BL/6 stCrl); settings: Mus musculus, Fibroblast, 24 h, read-out: Δ % over non-treated controls, tissue-bound GAG
Method: as §2, §3, §4, §5

Acute toxicity in rats = assay: Acute toxicity in rats; parameters: species or system Sprague Dawley albino rats; settings: rat, in vivo; for LD50 at 240 h: 10 days observation, read-out: DL50
From the text: Sprague Dawley albino rats having an average weight of about 150 g, subdivided into groups of 10 animals (5 males and 5 females) were used for each dose and for each method of administration.
The methods of administration were: oral by means of a gastric probe, intramuscular and endovenous into the caudal vein.
(§1) The observation time after administration was 10 days.

Acute toxicity in mice = assay: Acute toxicity in mice; parameters: species or system Swiss NMRI mice; settings: mouse, in vivo; for LD50 at 240 h: 10 days observation, read-out: DL50
From the text: Swiss NMRI mice having an average weight of 20±2 g, subdivided in groups of 10 animals (5 females and 5 males) were used for each dose and for each method of administration.
The methods of administration were: oral by means of gastric probe, intramuscular and endovenous into the caudal vein.
as §1

[4] = im, intramuscular, max. dose 3000 mg/kg
[5] = iv, endovenous, max. dose 1500 mg/kg

Work on `N[C@H]1C(O)O[C@H](CO)[C@@H](O)[C@@H]1O.O=S(=O)(O)O` (stereo partly shown) [Glucosamine sulphate, glucosamine sulphate] yielded an activation at 10 µg/mL (mice-embryo fibroblast [1]) of 24.3%, an activation at 50 µg/mL (mice-embryo fibroblast [1]) of 96% and an activation at 100 µg/mL (mice-embryo fibroblast [1]) of 71.2%. The remaining at 8 h (physchem) was 95.8%, the remaining at 16 h (physchem) was 73.8% and the remaining at 72 h (physchem) was 98.4%. The remaining at 168 h (physchem) was 98.3%, the remaining at 360 h (physchem) was 100% and the remaining at 720 h (physchem) was 99.4%. The remaining at 1440 h (physchem) was 98.1%, the Appearance (15° C., 30% R.H., 0 days) was 1 and the Titre of glucosamine (15° C., 30% R.H., 0 days) was 98.7%. For the same compound, the Appearance (15° C., 30% R.H., 7 days) was 1, the Appearance (15° C., 30% R.H., 15 days) was 1 and the Appearance (15° C., 30% R.H., 30 days) was 1. The Appearance (15° C., 30% R.H., 60 days) was 1, the Appearance (15° C., 30% R.H., 120 days) was 2 and the Appearance (15° C., 30% R.H., 360 days) was 2-3. For the same compound, the Appearance (15° C., 45% R.H., 0 days) was 1, the Appearance (15° C., 45% R.H., 7 days) was 1 and the Appearance (15° C., 45% R.H., 15 days) was 1. For the same compound, the Appearance (15° C., 45% R.H., 30 days) was 1, the Appearance (15° C., 45% R.H., 60 days) was 2 and the Appearance (15° C., 45% R.H., 120 days) was 4. It also gave an Appearance (15° C., 45% R.H., 360 days) of 6, an Appearance (15° C., 60% R.H., 0 days) of 1 and an Appearance (15° C., 60% R.H., 3 days) of 1. It also gave an Appearance (15° C., 60% R.H., 6 days) of 3, an Appearance (15° C., 60% R.H., 12 days) of 5 and an Appearance (15° C., 60% R.H., 24 days) of 6. The Appearance (15° C., 60% R.H., 36 days) was 6, the Appearance (15° C., 60% R.H., 48 days) was 6 and the Appearance (25° C., 30% R.H., 0 days) was 1. It also gave a Titre of glucosamine (25° C., 30% R.H., 0 days) of 99.6%, an Appearance (25° C., 30% R.H., 7 days) of 1 and an Appearance (25° C., 30% R.H., 15 days) of 1. It also gave an Appearance (25° C., 30% R.H., 30 days) of 1, an Appearance (25° C., 30% R.H., 60 days) of 2 and an Appearance (25° C., 30% R.H., 120 days) of 3. The Appearance (25° C., 30% R.H., 360 days) was 4, the Appearance (25° C., 45% R.H., 0 days) was 1 and the Titre of glucosamine (25° C., 45% R.H., 0 days) was 100.5%. For the same compound, the Appearance (25° C., 45% R.H., 3 days) was 1, the Appearance (25° C., 45% R.H., 6 days) was 1 and the Appearance (25° C., 45% R.H., 12 days) was 2. The Appearance (25° C., 45% R.H., 24 days) was 3, the Appearance (25° C., 45% R.H., 36 days) was 5 and the Appearance (25° C., 45% R.H., 48 days) was 6. For the same compound, the “Time to complete decomposition” value (25° C., 60% R.H.) was 36 h, the Appearance (25° C., 60% R.H., 0 hours) was 1 and the Appearance (25° C., 60% R.H., 2 hours) was 1. For the same compound, the Appearance (25° C., 60% R.H., 4 hours) was 1, the Appearance (25° C., 60% R.H., 8 hours) was 2 and the Appearance (25° C., 60% R.H., 16 hours) was 3. For the same compound, the Appearance (25° C., 60% R.H., 24 hours) was 4, the Appearance (25° C., 60% R.H., 36 hours) was 6 and the Titre of glucosamine (solid storage, 24 h) was 44.6%. It also gave a Titre of glucosamine (solid storage, 72 h) of 100.3%, a Titre of glucosamine (solid storage, 576 h) of 74.5% and a Titre of glucosamine (solid storage, 864 h) of 29.6%. For the same compound, the “% Inhibition of granuloma” value ([2]; 300 mg/kg/os daily) was 40.9%, the “Average dry weight of the granuloma (average ± s.e.)” value ([2]; 300 mg/kg/os daily) was 91.2 ± 10.8 and the “% Inhibition of granuloma” value ([2]; 600 mg/kg/os daily) was 54.1%. The “Average dry weight of the granuloma (average ± s.e.)” value ([2]; 600 mg/kg/os daily) was 70.7 ± 7.9, the activation at 10 µg/mL (mice-embryo fibroblast [3]) was 32.7% and the activation at 50 µg/mL (mice-embryo fibroblast [3]) was 75.6%. It also gave an activation at 100 µg/mL (mice-embryo fibroblast [3]) of 94.7%, an LD50 at 240 h (Acute toxicity in rats; im, intramuscular) greater than 3000 mg/kg and a mortality at 240 h (Acute toxicity in rats; [4]) of 0%. The LD50 at 240 h (Acute toxicity in rats; iv, endovenous) was greater than 1500 mg/kg, the mortality at 240 h (Acute toxicity in rats; [5]) was 0% and the LD50 at 240 h (Acute toxicity in rats; oral) was greater than 5000 mg/kg. For the same compound, the mortality at 240 h (Acute toxicity in rats; oral, max. dose 5000 mg/kg) was 0%, the LD50 at 240 h (Acute toxicity in mice; im, intramuscular) was greater than 3000 mg/kg and the mortality at 240 h (Acute toxicity in mice; [4]) was 0%. It also gave an LD50 at 240 h (Acute toxicity in mice; iv, endovenous) greater than 1500 mg/kg, a mortality at 240 h (Acute toxicity in mice; [5]) of 0% and an LD50 at 240 h (Acute toxicity in mice; oral) greater than 5000 mg/kg. For the same compound, the mortality at 240 h (Acute toxicity in mice; oral, max. dose 5000 mg/kg) was 0%.
